Laboratory results taken from ChEMBL document CHEMBL1153693, “Inhibitors of leukotriene B4. Synthesis and sar of new -enaminoester open-chain analogues of zeneca ZD2138” (Bioorg Med Chem Lett, 1996).
≈ marks a conversion by molar mass, not a printed value.

What was measured:
Homo sapiens = species on record: Homo sapiens; assay: In vitro inhibition of LTB4 production in human blood.; type: functional
Rattus norvegicus = assay: Compound was evaluated ex vivo for inhibition of LTB4 production in rat air pouch inflammatory exudate at 3 hr after peroral administration.; type: functional; settings: po
[1] = Aqueous solubility was determined; type: physicochemical

Structure (SMILES)	IC50 (Homo sapiens)	ED50 (Rattus norvegicus)	solubility [1]
COC1(/C(C)=C/C(=O)OCc2ccc3c(ccc(=O)n3C)c2)CCOCC1	2100 nM	> 5 mg/kg	
COC1(C(=O)CC(=O)OCc2ccc3c(ccc(=O)n3C)c2)CCOCC1	> 10000 nM	> 5 mg/kg	
COC1(C(=N)/C=C(\O)OCc2ccc3ccccc3c2)CCOCC1	70 nM	> 5 mg/kg	50 µM (≈ 17.1 µg/mL)
COC1(/C=C/COCc2ccc3c(ccc(=O)n3C)c2)CCOCC1	500 nM	> 5 mg/kg	
COC1(/C=C/C(=O)OCc2ccc3c(ccc(=O)n3C)c2)CCOCC1	1700 nM	> 5 mg/kg	
COC1(C(=N)/C=C(\O)OCc2ccc3c(ccc(=O)n3C)c2)CCOCC1	40 nM	3 mg/kg	150 µM (≈ 55.9 µg/mL)
COC1(C(=N)/C=C(\O)OCc2ccc3c(c2)OCC(=O)N3C)CCOCC1	60 nM	5 mg/kg	25 µM (≈ 9.41 µg/mL)
CO/C(=C\C(=O)OCc1ccc2c(ccc(=O)n2C)c1)C1(OC)CCOCC1	2600 nM	> 5 mg/kg	
COC1(c2cc(F)cc(OCc3ccc4c(ccc(=O)n4C)c3)c2)CCOCC1 [ZD-2138]		0.3 mg/kg	3.8 µM (≈ 1.51 µg/mL)
